Patent US12712053B2, “Determining the stability of a substance or substance mixture” (BIONORICA SE, priority 2022, dated 2026)
Where two headings read alike, the source gives them in different places.

Experiments:
[1] = in vitro; details: human, HEK295 cells
[2] = tested on: HEK295 cells; details: for Main test: maximum Euclidian distance: NIR, plateau value of curve fit
Description: The subject of the investigation was: • HEK295 cells, provided by Microbify, in a concentration of 2.2*10^5 cells/ml in medium, grown confluently, i.e. adherently grown cells that have formed a continuous monolayer/cell layer, in the NIR measuring vessels with transflectance stamp made of stainless steel from BrukerOptics • Use of nutrient medium DMEM (Dulbecco's Modified Eagle's Medium), with high glucose content, HEPES buffer, without phenol red indicator. Medium was purchased ready-to-use from ThermoFisher, catalog number 21063045, and mixed with 10% fetal calf serum (v/v) and 1% penicillin-streptomycin solution (v/v). • Cell culture for 48 hours before measurement directly in the measuring vessel • Addition of several concentrations of ethanol: 0% (control), 3%, 6% (each v/v). […] Before the experiment began, the cells were confluent, i.e. 100% viable • Measurement of cell changes via NIR over a period of […]
The measuring instrument used was a near-infrared spectroscopy device microPHAZIR GP (Thermo Fisher Scientific Inc.) with a wave number range: 6266 cm^−1 to 4172 cm^−1
Data pretreatment of the NIR spectra: No special pretreatment was carried out, spectra were processed directly.
The following calculation parameters were chosen: Euclidean distance
The cells were removed from the incubator and treated with a chemical stress factor (ethanol) at the concentrations mentioned. Three independent replicates were prepared with 0%, 3% and 6% ethanol and in a narrow measured at intervals of time (every 2 minutes) over a total period of 6 hours via NIR.
From the measured spectra, the Euclidean distances were calculated according to the method of the invention, averaged per measurement time and the fitting of kinetic curves (cf. Application example 3; identical procedure). […] The data points are the mean values of 3 independent replicates, each measured 3 times, thus there are 9 measurement points per point. The error bars are the standard error of the mean. Also shown are the determination points for Km (time at which 50% of the plateau value was reached), K90 (time at which 90% of the plateau value was reached), and K95 (time at which 95% of the plateau value was reached).

CCO [ethanol]
viability at 2.5 % ethanol [1]: 68% | viability at 3 % ethanol [1]: 70.8% | viability at 5 % ethanol [1]: 65.5% | viability at 6 % ethanol [1]: 41.4% | viability at 7.5 % ethanol [1]: 22.5% | viability at 10 % ethanol [1]: 0% | Km (time at which 50% of the plateau value was reached) ([2]; 3% EtOH): ~ 13 min | Main test: maximum Euclidian distance ([2]; 3% ethanol (v/v)): 0.194 | Km (time at which 50% of the plateau value was reached) ([2]; 6% EtOH): ~ 11 min | Main test: maximum Euclidian distance ([2]; 6% ethanol (v/v)): 0.272
